Measurements as given in publication PMC11336009 (GeroScience, 2024).
“Also recorded” adds a separate entry of the source.

What was measured:
[1] = tested on: 6-OHDA unilateral medial forebrain bundle lesioned rat; assay: Methamphetamine-induced rotation in unilateral 6-OHDA lesioned rats; format: in vivo; conditions: for Meth-induced ipsilateral rotation vs vehicle: early treatment 10 mg/kg daily p.o. from 7 days before lesioning, meth 2.5 mg/kg s.c. on days 20 and 30
[2] = tested on: TNF-α, IL-6, Iba-1 and GFAP; assay: Neuroinflammatory measures in brain (TNF-α, IL-6 ELISA; Iba-1, GFAP Western blot); format: in vivo, rat; conditions: 30 mg/kg daily p.o. day 7 to 45; day 45
Procedure: To quantify rat brain cytokine levels, brain tissues were homogenized in TPER (Tissue Protein Extraction Reagent) (ThermoFisher Scientific) using a Biomasher Homogenizer. Inhibitors of phosphatase and protease were added into the TPER to prevent protein degradation. Tissues were then sonicated for 10 pulses and centrifuged at 10,000 g for 10 min at 4 °C. The supernatant was used to measure brain cytokine levels using rat TNF-α ELISA kits from e-Bioscience (San Diego, CA, USA) and rat IL-6 ELISA kits from Biolegend (San Diego, CA, USA). The final results were normalized to protein content, as measured by BCA (bicinchoninic acid) assay. Brain tissue Iba-1 and GFAP levels were quantified by Western blot (Iba-1 and GFAP antibodies Santa Cruz Biotechnology, Inc.) and used in 1:100 dilution).

[3] = tested on: 6-OHDA unilateral medial forebrain bundle lesioned rat; assay: Tyrosine hydroxylase (TH) immunoreactivity in striatum and SNc of 6-OHDA lesioned rats; format: in vivo
Procedure: treatment was initiated either prior to or after 6-OHDA lesioning (early and delayed treatment, respectively) as follows. (1) Early treatment: […] An estimated dose for a 250-g rat under this treatment was 10 mg/kg/day. (2) Delayed treatment: […] An estimated, clinically relevant, dose for a 250 g rat under this treatment was thus 30 mg/kg/day. Specifically for drug admixture into diet, drug was solubilized in 100% ETOH that was then added to the 16.2 g of food chow. Thereafter, the ETOH was evaporated off. […] Animals were weighed twice weekly and the amount of drug added to the chow was modified accordingly to maintain the daily required dose. […] Specifically, the 10 mg/kg oral daily drug dose in our rat studies is equivalent to the routine human daily oral dose (100 mg in a 65 kg human) of these […] used in T2DM, and the 30 mg/kg rat dose is equivalent to a threefold higher dose that is well-tolerated in humans. Following the exact same protocol described in Yin et al., 2012 [34] and Li et al., 2009 [35], anesthetized rats were injected i.c.v. with PF-00734,200 (15.4 nmole in 20 μL sterile physiological saline (n = 6)) or vehicle (sterile physiological saline, 20 μL (n = 8)) using a 25 μL Hamilton syringe at 10 min prior to 6-OHDA lesioning (Supplemental Fig. 2). The coordinates for the i.c.v. injection were 0.8 mm posterior to bregma, 1.2 mm lateral (Left) to midline, and 3.7 mm ventral to the dural surface. The rate of infusion (4 μL/min) was adjusted by a microprocessor-controlled injector mounted to the stereotaxic frame (UMP4; World Precision Instruments, Sarasota, FL, USA). The needle was slowly removed after 2 min upon completion of the injection. Following the exact same protocol described in Yin et al., 2012 [34] and Harvey et al. 2004 [36], anesthetized rats were subjected to a 6-OHDA unilateral medial forebrain bundle lesion. Briefly, 6-OHDA (2.27 μg/μL × 5 μL in 0.9% NaCl containing 0.2 mg/ml ascorbic acid) was unilaterally injected into the medial forebrain bundle (-4.4 mm AP, 1.2 mm ML relative to bregma and 8.4 mm below skull) over 4 min through a syringe pump (Micro 4, WPI, Sarasota, FL), as approved under National Health Research Institutes, Taiwan, Protocol # 102,068-A; 102,102-A. Following this procedure, all animals were monitored daily for adverse signs of health for 1 week (in line with the approved protocols). BrdU and TH localization was determined by immunohistochemistry. Serial sections of the entire brain were cut at 30 μm thickness by cryostat. One series from every sixth section was stained for TH. To control for staining variability, specimens from all experimental groups were included in every batch and reacted together in a net well tray under the same conditions. Sections were rinsed in 0.1 M phosphate buffer (PB), blocked with 4% bovine serum albumin (BSA) and 0.3% Triton x-100 in 0.1 M PB. Sections were then incubated in a primary antibody solution mouse monoclonal anti-TH diluted in 4% BSA and 0.3% Triton x-100 in 0.1 M PB, concentration 1:100 (Chemicon, Temecula, CA) and polyclonal anti-BrdU (1:500, Millipore, MA, USA) for 17-19 h at 4 °C. Sections were then rinsed in 0.1 M PB and incubated in secondary antibodies for 1 h, followed by incubation for 1 h with avidin-biotin-horseradish peroxidase complex. Thereafter, sections were mounted on slides, and coverslipped. TH and BrdU immunoreactivity was examined under a fluorescent microscope. Sections were incubated without primary antibody as a control and observers were blinded as to treatment groups. TH immunoreactivity and BrdU cell number in striatum were averaged from 3 brain sections with visible anterior commissure in each animal. TH immunoreactivity in SNc was measured every 6th Sect. (30 μm per each section) throughout the extent of midbrain. […] volume was analyzed using Cavalieri's method.

[4] = Body weight of 6-OHDA lesioned rats under chronic gliptin treatment; format: in vivo, rat; conditions: 12 mg/kg daily from day 7 after lesioning, one day before and 28 days after lesioning
Procedure: Gliptin treatment was initiated either prior to or after 6-OHDA lesioning (early and delayed treatment, respectively) as follows. […] Specifically for drug admixture into diet, drug was solubilized in 100% ETOH that was then added to the 16.2 g of food chow. Thereafter, the ETOH was evaporated off. […] Animals were weighed twice weekly and the amount of drug added to the chow was modified accordingly to maintain the daily required dose. […] Specifically, the 10 mg/kg oral daily drug dose in our rat studies is equivalent to the routine human daily oral dose (100 mg in a 65 kg human) of these gliptins used in T2DM, and the 30 mg/kg rat dose is equivalent to a threefold higher dose that is well-tolerated in humans.

[5] = delayed treatment 30 mg/kg daily p.o. from day 7 to 45, rotation on days 20, 30 and 40
[6] = delayed treatment 30 mg/kg daily p.o. from day 7, day 21
[7] = early treatment 10 mg/kg daily p.o.
[8] = early treatment 10 mg/kg daily p.o., normalized to non-lesioned side, day 35

Row | SMILES | Meth-induced rotation vs vehicle [1, 5] | Meth-induced rotational behavior vs vehicle ([1]; delayed treatment, low dose 10 mg/kg daily p.o. from day 7) | Meth-induced ipsilateral rotation vs vehicle [1] | Meth-induced rotation vs vehicle ([1]; i.c.v. 15.4 nmole 10 min prior to 6-OHDA lesioning, evaluated on day 30) | GFAP level on the lesioned side of brain (striatum) vs vehicle [2] | IL-6 level on the lesioned side of brain (striatum) vs vehicle [2] | Iba1 level on the lesioned side of brain (striatum) vs vehicle [2] | TNF-α level on the lesioned side of brain (striatum) vs vehicle [2] | TH cell density in the lesioned SNc vs vehicle [3, 6] | TH pixel density in the lesioned striatum vs vehicle [3, 6] | TH immunoreactivity in the lesioned side SNc vs vehicle [3, 7] | TH immunoreactivity in the non-lesioned side SNc [3, 7] | TH pixel density in the lesioned striatum vs vehicle [3, 8] | TH immunohistochemistry in striatum and SNc vs vehicle ([3]; i.c.v. 15.4 nmole 10 min prior to 6-OHDA lesioning) | Body weight in 6-OHDA lesioned rats [4]
1 | O=C([C@@H]1C[C@H](N2CCN(c3ncccn3)CC2)CN1)N1CCC(F)(F)C1 [PF-00734,200, Gosogliptin] | significantly attenuated | did not alter rotational behavior | significantly reduced | no different from similarly vehicle-treated animals | reduced levels | reduced levels | reduced levels | reduced levels | significantly increased | a trend, but not a statistically significant | significantly increased | did not alter | significantly increased | lack of neuroprotection; also recorded: no different from similarly vehicle-treated animals | did not alter body weight
2 | N[C@@H](CC(=O)N1CCn2c(nnc2C(F)(F)F)C1)Cc1cc(F)c(F)cc1F [Sitagliptin] | significantly attenuated |  | small but significant difference |  | reduced levels | reduced levels | reduced levels | reduced levels | significantly increased | significantly increased | significantly increased | did not alter | significantly increased |  | did not alter body weight
